Experimental data from patent US7396848B1, “Neurotrophin production/secretion promoting agent” (Takeda Pharmaceutical Company Limited, priority 2000, dated 2008).

Test system: NGF
Assay: NGF production/secretion promoting activity in cultured Schwann cells (enzyme immunoassay of culture fluid)
Format: cell-based, SD rats
Settings: 24 hours, concentrations of 10^−4 M to 10^−8 M, result in words
Method: Schwann cells were prepared by subjecting the dorsal spinal root ganglion collected from 10 newborn SD rats to enzyme treatment using 0.25% trypsin containing 0.01% deoxyribonuclease (DNase, produced by Sigma), followed by cloning from the cell group obtained. […]
The culture fluid obtained in each run of Reference Example 1A was recovered and assayed for the neurotrophin content therein. […] After washing, 30 μl of 4-methylumbelliferyl-β-D-galactoside (produced by Sigma) (10 μg/μl) was added to the substrate, the reaction was allowed to proceed at room temperature for 4 hours and then terminated by addition of 130 μl of 0.1 M glycine-sodium hydroxide buffer (pH 10.3), and the fluorescent intensity of the 4-methylumbelliferone produced was determined (Ex: 360 nm; Em: 450 nm). The amount of NGF was calculated based on a standard curve and expressed in terms of relative multiplicity in relation to the amount of NGF (control) produced and secreted by cells treated in the same manner without adding the test compound. […]

With `COc1ccccc1OCCCc1oc(-n2ccnc2C)nc1-c1ccc(Cl)cc1` [Compound (1), 4-(4-chlorophenyl)-5-[3-(2-methoxyphenoxy)propyl]-2-(2-methyl-1-imidazolyl)oxazole] the “NGF production/secretion promoting activity” value was “excellent”.

Test system: BDNF
Assay: BDNF production/secretion promoting activity in cultured Schwann cells (enzyme immunoassay of culture fluid)
Format: cell-based, SD rats
Settings: 24 hours, concentrations of 10^−4 M to 10^−8 M, result in words

With `COc1ccccc1OCCCc1oc(-n2ccnc2C)nc1-c1ccc(Cl)cc1` [Compound (1), 4-(4-chlorophenyl)-5-[3-(2-methoxyphenoxy)propyl]-2-(2-methyl-1-imidazolyl)oxazole] the “BDNF production/secretion promoting activity” value was “excellent”.

Test system: not given
Assay: not given
Settings: not given

First: COC(=O)CCc1oc(-n2ccnc2C)nc1-c1ccc(Cl)c(Cl)c1 [Example 117, methyl 4-(3,4-dichlorophenyl)-2-(2-methyl-1-imidazolyl)-5-oxazolepropionate]
Second: Cc1nccn1-c1nc(-c2ccc(Cl)c(Cl)c2)c(CCCO)o1 [Example 119, 4-(3,4-dichlorophenyl)-2-(2-methyl-1-imidazolyl)-5-oxazolepropanol]
The melting point of the first is lower: 116 to 117 °C for the first, 140 to 141 °C for the second.

Compared with `Cc1nccn1-c1nc(-c2ccc(Cl)cc2)c(CCCOc2ccccc2O)o1` [Example 61, 4-(4-chlorophenyl)-5-[3-(2-hydroxyphenoxy)propyl]-2-(2-methyl-1-imidazolyl)oxazole], `Cc1nccn1-c1nc(-c2ccc(Cl)cc2)c(CCCOc2ccccc2CCC(=O)O)o1` [Example 94, 3-[2-[3-[4-(4-chlorophenyl)-2-(2-methyl-1-imidazolyl)-5-oxazolyl]propoxy]phenyl]propionic acid] is higher in melting point: 110 to 111 °C for the first, 184 to 185 °C for the second.

First: Cc1cc(C)n(-c2nc(-c3ccc(Cl)cc3)c(CCCOc3ccccc3C)o2)n1 [Example 72, 4-(4-chlorophenyl)-2-(3,5-dimethyl-1-pyrazolyl)-5-[3-(2-methylphenoxy)propyl]oxazole]
Second: Cc1ccccc1OCCCc1oc(-n2ccnc2)nc1-c1ccc(Cl)cc1 [Example 55, 4-(4-chlorophenyl)-2-(1-imidazolyl)-5-[3-(2-methylphenoxy)propyl]oxazole]
The melting point of the first is lower: 103 to 104 °C for the first, 113 to 114 °C for the second.

Compared with `Cc1nccn1-c1nc(-c2ccc(C(F)(F)F)cc2)c(CCCO)o1` [Example 118, 2-(2-methyl-1-imidazolyl)-4-(4-trifluoromethylphenyl)-5-oxazolepropanol], `COC(=O)CCc1oc(-n2ccnc2C)nc1-c1ccc(C(F)(F)F)cc1` [Example 116, methyl 2-(2-methyl-1-imidazolyl)-4-(4-trifluoromethylphenyl)-5-oxazolepropionate] is lower in melting point: 127 to 129 °C for the first, 94 to 95 °C for the second.

First: CCCCCCCCCCCc1nccn1-c1nc(-c2ccc(Cl)cc2)c(CCCOc2ccccc2OC)o1 [Example 84, 4-(4-chlorophenyl)-5-[3-(2-methoxyphenoxy)propyl]-2-(2-undecyl-1-imidazolyl)oxazole]
Second: CCCc1nccn1-c1nc(-c2ccc(Cl)cc2)c(CCCOc2ccccc2OC)o1 [Example 83, 4-(4-chlorophenyl)-5-[3-(2-methoxyphenoxy)propyl]-2-(2-propyl-1-imidazolyl)oxazole]
The melting point of the first is lower: 53 to 54 °C for the first, 89 to 90 °C for the second.

First: CCc1nccn1-c1nc(-c2ccc(Cl)cc2)c(CCCOc2ccccc2OC)o1 [Example 57, 4-(4-chlorophenyl)-2-(2-ethyl-1-imidazolyl)-5-[3-(2-methoxyphenoxy)propyl]oxazole]
Second: CCc1nccn1-c1nc(-c2ccc(Cl)cc2)c(CCCOc2ccccc2C)o1 [Example 56, 4-(4-chlorophenyl)-2-(2-ethyl-1-imidazolyl)-5-[3-(2-methylphenoxy)propyl]oxazole]
The melting point of the first is lower: 78 to 79 °C for the first, 91 to 92 °C for the second.

First: Cc1nccn1-c1nc(-c2ccc(Cl)s2)c(CCCCO)o1 [Example 99, 4-(5-chloro-2-thienyl)-2-(2-methyl-1-imidazolyl)-5-oxazolebutanol]
Second: Cc1nccn1-c1nc(-c2ccc(F)cc2)c(CCCCO)o1 [Example 102, 4-(4-fluorophenyl)-2-(2-methyl-1-imidazolyl)-5-oxazolebutanol]
The melting point of the first is lower: 77 to 79 °C for the first, 97 to 98 °C for the second.

First: Cc1nccn1-c1nc(-c2ccc(Cl)cc2)c(CCCOc2ccccc2CCCO)o1 [Example 93, 4-(4-chlorophenyl)-5-[3-(2-(3-hydroxypropyl)phenoxy)propyl]-2-(2-methyl-1-imidazolyl)oxazole]
Second: Cc1cc(O)ccc1OCCCc1oc(-n2ccnc2C)nc1-c1ccc(Cl)cc1 [Example 113, 4-[3-[4-(4-chlorophenyl)-2-(2-methyl-1-imidazolyl)-5-oxazolyl]propyloxy]-3-methylphenol]
The melting point of the first is lower: 119 to 120 °C for the first, 175 to 176 °C for the second.

Compared with `Cc1nccn1-c1nc(-c2ccc(Cl)cc2)c(CCCCO)s1` [Example 24, 4-(4-chlorophenyl)-2-(2-methyl-1-imidazolyl)-5-thiazolebutanol], `Cc1ccccc1OCCCc1sc(-n2ccnc2C)nc1-c1ccc(Cl)cc1` [Example 96, 4-(4-chlorophenyl)-2-(2-methyl-1-imidazolyl)-5-[3-(2-methylphenoxy)propyl]thiazole] is higher in melting point: 98 to 99 °C for the first, 112 to 113 °C for the second.

First: Cc1cccc(Cl)c1CCCOc1oc(-n2ccnc2C)nc1-c1ccc(Cl)cc1 [Example 109, 5-[3-(2-chloro-6-methylphenyl)propyloxy]-4-(4-chlorophenyl)-2-(2-methyl-1-imidazolyl)oxazole]
Second: CCOC(=O)c1nccn1-c1nc(-c2ccc(Cl)cc2)c(CCCOc2ccccc2OC)o1 [Example 69, ethyl 1-[4-(4-chlorophenyl)-5-[3-(2-methoxyphenoxy)propyl]-2-oxazolyl]imidazole-2-carboxylate]
The melting point of the first is higher: 115 to 116 °C for the first, 90 to 91 °C for the second.

First: CCOC(=O)C1CCN(c2nc(-c3ccc(Cl)cc3)c(CCCOc3ccccc3OC)o2)CC1 [Example 40, ethyl N-[4-(4-chlorophenyl)-5-[3-(2-methoxyphenoxy)propyl]-2-oxazolyl]isonipecotate]
Second: COc1ccccc1OCCCc1oc(N2CCOCC2)nc1-c1ccc(Cl)cc1 [Example 39, 4-(4-chlorophenyl)-2-(4-morpholinyl)-5-[3-(2-methoxyphenoxy)propyl]oxazole]
The melting point of the first is lower: 80 to 81 °C for the first, 81 to 82 °C for the second.

Compared with `CCOC(=O)CCCc1sc(N)nc1-c1ccc(Cl)cc1` [Example 22, ethyl 2-amino-4-(4-chlorophenyl)-5-thiazolebutanoate], `COc1ccccc1OCCCc1oc(-n2cnc(-c3ccccc3)c2-c2ccccc2)nc1-c1ccc(Cl)cc1` [Example 42, 4-(4-chlorophenyl)-2-(4,5-diphenyl-1-imidazolyl)-5-[3-(2-methoxyphenoxy)propyl]oxazole] is higher in melting point: 114 to 115 °C for the first, 118 to 119 °C for the second.
